Patent US12324827B2, “Combination therapy for the treatment of migraines” (The University of Chicago, priority 2019, dated 2025)

How the values were obtained:
trigeminal ganglion CGRP = test: CGRP immunostaining of trigeminal ganglion after recurrent spreading depression; assay type: in vivo, rat; settings: n=5/group
Experimental: N2B delivery of 150 μg human recombinant IGF-1 (#191-G1; R&D Systems, Minneapolis, MN) in 50 μL sodium succinate buffer followed the previously described approach (21,51) that was based on the techniques of Liu and coworkers (24) in the recording laboratory under isoflurane anesthesia with spontaneous ventilation.
Induction of recurrent SD followed previously published aseptic techniques from the inventors' laboratory (8, 13, 21, 25, 26, 51) (FIG. 4). […]
Imaging was performed using a Photometrics self-calibrating digital camera QuantEM-512SC camera (500×500 pixels; Photometrics, Tucson, AZ) run on MetaMorph software (v. 7.0.4; Molecular Devices, Sunnyvale, CA) under blinded conditions (as previously described (13, 20-22). Image exposure, camera gain and thresholding were uniformly set (i.e., equivalently for experimental and sham groups for each imaging metric (i.e., MDA, CGRP and c-fos). Resultant images were digitally stored as TIFF files for subsequent analyses that continued under blinded conditions where image integrated fluorescence intensity was registered using MetaMorph software for MDA and CGRP.
Images of MDA and CGRP were analyzed while blinded and later decoded to ratios of experimental/sham image integrated optical intensity, a sensitive metric that not only accounts for the area but also the pixel intensity of related image fluorescence. […]

[1] = Blood glucose after nose-to-brain (N2B) delivery of IGF-1; assay type: in vivo, Wistar rats; settings: 1.0-hour after N2B IGF-1 150 μg, n=4/group
blood CGRP = test: CGRP plasma assay (ELISA) after recurrent spreading depression; assay type: in vivo, rat
Experimental: Blood was collected via cardiac puncture using a 21 gauge syringe needle and transferred into a BD Vacutainer K3 EDTA blood collection tube (366450, Becton, Dickinson & Co., Franklin Lakes, NJ). Samples were spun 1,500 g×10 min at 4° C. The plasma was transferred to sterile 2.0 mL, screw cap, polypropylene tubes and stored at −80° C. until analysis. Plasma samples were sent to Cayman Chemical Company (Ann Arbor, Michigan) for analysis of CGRP content using ELISA methods. According to the vendor, the detection limit is <10 pg/mL.

[2] = system: caudal trigeminal nucleus c-fos; test: c-fos immunostaining of caudal trigeminal nucleus after recurrent spreading depression; assay type: in vivo, rat; settings: −4.5 mm from the obex, n=6/group
Text: Induction of recurrent SD followed previously published aseptic techniques from the inventors' laboratory (8, 13, 21, 25, 26, 51) (FIG. 4). Animals were anesthetized with 5% isoflurane, which was later reduced to 1.5% inhalational isoflurane in oxygen during procedures and followed previous procedures for assessing the impact of recurrent SD after pretreatment with N2B IGF-1 (21, 51)).
One day after N2B treatment and surgery, animals were again anesthetized with 5% isoflurane in oxygen that was reduced to 1.5% during recordings of CSD followed by procedures to induce recurrent CSD every 10 minutes for 90 minutes as previously described (FIG. 4) (21,51). […]
For c-fos image analyses, the 5× digitally stored TIFF files were electronically enlarged to facilitate cell counting to 6,400×6,400 pixels and adjusted for brightness/contrast equivalently between experimental group pairs using Image J (v. 1.43i; National Institutes of Health public access). c-fos labeled nuclei were manually counted by an observer blinded to experimental conditions. Only intensely stained, round or oval-shaped nuclei were counted in lamina I-II [obex through −6.0 mm, recording the average of n=3 sections (technical replicates) at each anatomical level per animal (n≥5 biological replicates/group)]. […]

IGF-1: human recombinant IGF-1 (#191-G1; R&D Systems), 150 μg in 50 μL sodium succinate buffer, delivered nose-to-brain
log-ratio (IGF-1/sham) of CGRP immunostaining after recurrent CSD (trigeminal ganglion CGRP): −0.90±0.15
blood glucose level [1]: 139 ± 24 mg/dL
blood (plasma) CGRP level after recurrent SD (blood CGRP; IGF-1 pretreatment, n=6/group, three samples below the detection limit): 7.7 ± 1.6 pg/mL
changes in blood CGRP levels after pretreatment followed by recurrent SD (blood CGRP; IGF-1 versus vehicle): no significant (p=0.347, power=0.136) changes
relative c-fos positive cell counts (sham set to 1.00) [2]: 0.52±0.11
